Source: patent US8962576B2, “Compositions and method for improving endothelial function and cardiovascular health” (Natreon, Inc., priority 2012, dated 2015)
Values joined by “and” are separate entries in the source; they are usually repeats but may differ in a detail not shown here. Identical values can stand only once.

How the values were obtained:
Format in all cases: in vivo, human
Type 2 Diabetic Subjects [1] = test: Lipid profile, study (a), 12 weeks treatment; details: Sensoril or Capros 250 mg twice daily, Atorvastatin 10 mg at night, n = 10
Experimental: Study (a) design. Patients of either sex, aged 18-75 years, fasting plasma glucose of ≧110 mg/dL, a glycosylated hemoglobin (HbA1c) between 7% and 10% and taking stable doses of anti-diabetic treatment for the past 8 weeks prior to the screening visit; and having endothelial dysfunction defined as ≦6% change in reflection index (RI) on post salbutamol challenge test were included in the study. Patients with severe uncontrolled hyperglycaemia, uncontrolled hypertension, cardiac arrhythmia, impaired hepatic or renal function, history of malignancy or stroke, smoking, chronic alcoholism, any other serious disease requiring active treatment and treatment with any other herbal supplements, were excluded from the study. Pregnant and lactating women were also excluded.
All the eligible subjects were randomized to receive either one of the four treatments for duration of 12 weeks. There were ten (10) subjects per group. […] Subjects were asked to revisit for follow up at 4, 8 and 12 weeks of therapy. At each visit they were evaluated for efficacy and safety. Pharmacodynamic evaluation for endothelial function was conducted at every visit. Blood samples were collected for evaluation of biomarkers before and at the end of treatment. Safety lab investigations were conducted before and at the end of the study and as and when required in case of any adverse drug reaction (ADR). Subjects were examiner and/or surveyed for the presence of ADR and the same was recorded in the case report form. Compliance was assessed by pill count method.
All the subjects had undergone complete physical examination, safety lab evaluations at baseline, i.e., prior to treatment, and at the end of the treatment. Samples were collected after an overnight fast of 12 hrs after the last dose of medication for determination of haemoglobin level, glycosylated hemoglobin (HbA1c), urea and creatinine levels, liver function, and lipid profile (total cholesterol, high density lipoprotein cholesterol (HDL-C), and low density lipoprotein cholesterol (LDL-C)). Plasma glucose, liver function test, blood urea, serum creatinine and HbA1c were measured using appropriate standard techniques.

Type 2 Diabetic Subjects [2] = test: Other cardiovascular pharmacodynamic parameters (AIx, SEVR, ABI, PWV, CO, SVR), study (c); details: CAPROS 250 mg twice daily, Atorvastatin 10 mg daily, n = 20
Experimental: The augmentation index (AIx, defined as augmented pressure divided by pulse pressure and expressed as a percentage) is thus a composite measure of the magnitude of wave reflections and arterial stiffness, which affects timing of wave reflections. Because the augmentation index is influenced by changes in heart rate (HR), it is also accordingly corrected (AIx@75). The augmentation index was measured by using a validated, commercially available system (SphygmoCor; AtCor Medical, Sydney, Australia) that employs the principle of applanation tonometry and appropriate acquisition and analysis software for noninvasive recording and analysis of the arterial pulse. […] Waveforms of radial pressure were calibrated according to sphygmomanometric systolic and diastolic pressure measured in the brachial artery because there is practically negligible pressure pulse amplification between the brachial and the radial artery.
The subendocardial viability index, an indicator of myocardial workload and perfusion (O2 supply vs. demand) was calculated as the ratio of the integral of diastolic pressure and time to the integral of systolic pressure and time.
Brachial-ankle pulse wave velocity (baPWV) is also used to evaluate arterial stiffness. Pulse wave velocity is the speed at which the blood pressure pulse travels from the heart to the peripheral artery after blood rushes out during contraction. It is mainly used to evaluate stiffness of the artery wall. Pulse wave velocity increases with stiffness of the arteries. The PTT (Pulse Transit Time) of each segment is calculated from the waveform taken from each sensor. Pulse wave velocity is defined in Equation (1): […]
Brachial Ankle Pulse Wave Velocity (baPWV), Ankle Brachial Index (ABI) and Blood Pressure (BP) were measured using an automatic waveform analyzer (model BP-203 RPE; Colin Medical Technology, Komaki, Japan). Measurements were taken with patients lying in a supine position after 5 minutes of rest in that position. Occlusion and monitoring cuffs were placed snugly around both sites of the upper and lower extremities of patients. Pressure waveforms of the brachial and tibial arteries were then recorded simultaneously by an oscillometric method. Measurement of right and left baPWV was obtained for an average of 10 seconds. The average of left and right baPWV will be used for analysis.
Recording of cardiac output (CO) was performed using L&T Nivomon monitor (Larsen & Toubro Ltd., Mumbai, India). Noninvasive continuous cardiac output monitor with peripheral blood flow measurement option. This equipment is very useful and versatile. It calculates many cardiac parameters directly including cardiac output. It works on the features of impedance plethysmography principle and has tetrapolar configuration. The advantage is that this equipment directly calculates the cardiac output along with other parameters using the pulse wave.
(§1) After screening, all the eligible subjects were randomized to receive either one of the four treatments for a duration of 12 weeks, as follows.
The clinical measurements and pharmacodynamic tests were performed as described above in studies (a) or (b), unless otherwise stated.

Type 2 Diabetic Subjects [3] = test: Lipid profile, study (c); details: CAPROS 250 mg twice daily, Atorvastatin 10 mg daily, n = 20
Text: as §1
All the subjects had undergone complete physical examination, safety lab evaluations at baseline and at the end of the treatment. Samples were collected after an overnight fast of 12 hrs after the last dose of medication for determination of haemoglobin, HbA1c, blood urea and serum creatinine, liver function test, and lipid profile (Total cholesterol (TC), High density lipoprotein cholesterol (HDL-C), low density lipoprotein cholesterol (LDL-C)), and results obtained using appropriate standard techniques.

CC(C)c1c(C(=O)Nc2ccccc2)c(-c2ccccc2)c(-c2ccc(F)cc2)n1CC[C@@H](O)C[C@@H](O)CC(=O)O [Atorvastatin]
HDL-C (Type 2 Diabetic Subjects [1]; Post treatment, 12 weeks): 48.2±6.01 mg/dL and 48.2 ± 6.01$ mg/dL | LDL-C (Type 2 Diabetic Subjects [1]; Post treatment, 12 weeks): 87.6 ± 19.07 mg/dL | Total Cholesterol (Type 2 Diabetic Subjects [1]; Post treatment, 12 weeks): 146 ± 24.52 mg/dL | Triglycerides (Type 2 Diabetic Subjects [1]; Post treatment, 12 weeks): 102.8 ± 40.61 mg/dL | HDL-C (Type 2 Diabetic Subjects [1]; Pre treatment): 42.77 ± 6.13 mg/dL | LDL-C (Type 2 Diabetic Subjects [1]; Pre treatment): 133.2 ± 38.09 mg/dL | Total Cholesterol (Type 2 Diabetic Subjects [1]; Pre treatment): 185.7 ± 36.38 mg/dL | Triglycerides (Type 2 Diabetic Subjects [1]; Pre treatment): 169.1 ± 67.51 mg/dL | Absolute change in ABI (Type 2 Diabetic Subjects [2]; 12 weeks): 0.08 ± 0.06 | Absolute change in AIx (Type 2 Diabetic Subjects [2]; 12 weeks): −12.14 ± 5.44% | Absolute change in CO (Type 2 Diabetic Subjects [2]; 12 weeks): 0.84 ± 0.43 lt/min | Absolute change in PWV (Type 2 Diabetic Subjects [2]; 12 weeks): −175.5 ± 110.82 cm/s | Absolute change in SEVR (Type 2 Diabetic Subjects [2]; 12 weeks): 11.09 ± 6.51% | Absolute change in SVR (Type 2 Diabetic Subjects [2]; 12 weeks): −182.3 ± 109.61 dyne · sec/cm^5 | ABI (Type 2 Diabetic Subjects [2]; Post TT, 12 weeks): 1.10 ± 0.04$ | AIx (Type 2 Diabetic Subjects [2]; Post TT, 12 weeks): 123.4 ± 13.4$ % | CO (Type 2 Diabetic Subjects [2]; Post TT, 12 weeks): 5.15 ± 0.47$ lt/min | PWV (Type 2 Diabetic Subjects [2]; Post TT, 12 weeks): 1346 ± 147.6$ cm/s | SEVR (Type 2 Diabetic Subjects [2]; Post TT, 12 weeks): 146.5 ± 16.09$ % | SVR (Systemic Vascular Resistance) (Type 2 Diabetic Subjects [2]; Post TT, 12 weeks): 1336.95 ± 251.3$ dyne · sec/cm^5 | ABI (Type 2 Diabetic Subjects [2]; Pre TT): 1.02 ± 0.07 | AIx (Type 2 Diabetic Subjects [2]; Pre TT): 135.5 ± 14.71% | CO (Type 2 Diabetic Subjects [2]; Pre TT): 4.13 ± 0.65 lt/min | PWV (Type 2 Diabetic Subjects [2]; Pre TT): 1522 ± 127.7 cm/s | SEVR (Type 2 Diabetic Subjects [2]; Pre TT): 135.4 ± 19.11% | SVR (Systemic Vascular Resistance) (Type 2 Diabetic Subjects [2]; Pre TT): 1519.25 ± 296.3 dyne · sec/cm^5 | Absolute change in HDL-C (Type 2 Diabetic Subjects [3]; 12 weeks): 7.52 ± 7.00 mg/dL | Absolute change in LDL-C (Type 2 Diabetic Subjects [3]; 12 weeks): -47.48 ± 24.19 mg/dL | Absolute change in Total Cholesterol (Type 2 Diabetic Subjects [3]; 12 weeks): -48.11 ± 36.87 mg/dL | Absolute change in Triglycerides (Type 2 Diabetic Subjects [3]; 12 weeks): -48.54 ± 50.09 mg/dL | Absolute change in VLDL-C (Type 2 Diabetic Subjects [3]; 12 weeks): -5.30 ± 4.70 mg/dL | Mean percentage change in HDL-C (Type 2 Diabetic Subjects [3]; 12 weeks): 21.16 ± 20.49% | Mean percentage change in LDL-C (Type 2 Diabetic Subjects [3]; 12 weeks): −35.00 ± 14.34% | Mean percentage change in Total Cholesterol (Type 2 Diabetic Subjects [3]; 12 weeks): −24.68 ± 14.38% | Mean percentage change in Triglycerides (Type 2 Diabetic Subjects [3]; 12 weeks): −25.02 ± 25.34% | Mean percentage change in VLDL-C (Type 2 Diabetic Subjects [3]; 12 weeks): −18.24 ± 17.10% | HDL-C (Type 2 Diabetic Subjects [3]; Post TT, 12 weeks): 47.95 ± 5.34 mg/dL | LDL-C (Type 2 Diabetic Subjects [3]; Post TT, 12 weeks): 78.50 ± 16.71 mg/dL | Total Cholesterol (Type 2 Diabetic Subjects [3]; Post TT, 12 weeks): 135.6 ± 26.94 mg/dL | Triglycerides (Type 2 Diabetic Subjects [3]; Post TT, 12 weeks): 106.5 ± 30.79 mg/dL | VLDL-C (Type 2 Diabetic Subjects [3]; Post TT, 12 weeks): 19.90 ± 3.64 mg/dL | HDL-C (Type 2 Diabetic Subjects [3]; Pre TT): 40.44 ± 6.76 mg/dL | LDL-C (Type 2 Diabetic Subjects [3]; Pre TT): 126.00 ± 34.90 mg/dL | Total Cholesterol (Type 2 Diabetic Subjects [3]; Pre TT): 183.7 ± 37.41 mg/dL | Triglycerides (Type 2 Diabetic Subjects [3]; Pre TT): 155.0 ± 56.51 mg/dL | VLDL-C (Type 2 Diabetic Subjects [3]; Pre TT): 25.20 ± 6.57 mg/dL
